Test results: patent US9884816B2, “Sulforaphane-derived compounds, production method thereof and the medical, food and cosmetic use of same” (Consejo Superior De Investigaciones Científicas (CSIC), priority 2012, dated 2018)

Legend:
[1] = tested on: MRC-5 (fetal lung fibroblasts); assay: Cytotoxicity curve, MRC-5 cell line; assay type: cell-based; conditions: mean ± SEM, at least 3 independent experiments
Method: (§1) FIG. 5. Curve of cytotoxicity of the compounds 15S, and 15R, at four different concentrations ([…]) in comparison with Sigma-Aldrich® sulphoraphane at five different concentrations ([…]) for the cell lines A-549 (human lung adenocarcinoma) and MRC-5 (fetal lung fibroblasts), showing IC50 for all the products in each of the cell lines used in the test, expressed as mean±standard error (SEM) of all the tests conducted. Each diagram represents at least 3 independent experiments and both within them and for each value of IC50, the result of statistical analysis is indicated for the t-test with the p-value. The t-test indicates whether two values have a significant difference from the statistical standpoint. A p-value above 0.05 is not regarded as statistically significant and is not represented by any symbol, a p-value below 0.05 indicates statistical significance and is indicated with an asterisk (*), and then if p is below 0.01 it is indicated with two asterisks, and with three if it is below 0.001.

[2] = tested on: A-549 (human lung adenocarcinoma); assay: Cytotoxicity curve, A-549 cell line; assay type: cell-based; conditions: mean ± SEM, at least 3 independent experiments
Method: as §1

Compound | IC50 [1] [µM] | IC50 [2] [µM]
C[S@@+]([O-])CCCCN=C=S (racemic) [SF, (Rs)-1-isothiocyanato-4-(methylsulphinyl)-butane] | 46.6 ± 2.19 | 19.6 ± 2.27
C[S+]([O-])CCCCN=C=S (centres unmarked) [SF Sigma ®] | 30.5 ± 2.02 | 16.5 ± 3.05
C[S@+]([O-])CCOCCOCCN=C=S [SF 15Ss, (S)-(+)-8-Isothiocyanato-3,6-dioxaoctanylmethyl sulphoxide] | 58.3 ± 6.54 | 22.7 ± 0.69
(R)-(−)-8-Isocyanato-3,6-dioxaoctanylmethyl sulphoxide [SF 15Rs] | 67.3 ± 6.25 | 29.4 ± 3.89
